In PubChem BioAssay AID270 (DTP/NCI, 2004):
Records with an inconclusive call do not appear. *1 amine or outer side, *2 acyl side, *3 side chain or, on linkers, in order; H or OH if unused. Where a SMILES comes first, the peptide text is derived from it. Bridges are numbered along the chain shown (N, C = ends). Roman numbers before positions name the chains, in order. [ ]: non-standard residue; d: D form. Actinocin(1to9) = Cc1c2oc3c(C)ccc(C(=O)[*:2])c3nc-2c(C(=O)[*:1])c(N)c1=O; NMeV = CN[CH](C(=O)O)C(C)C; Sar = CNCC(=O)O

Test system: BDF1 mice, s.c. Lewis lung carcinoma, T/C %
Experiment: NCI In Vivo Anticancer Drug Screen. Data for tumor model Lewis Lung Carcinoma (subcutaneous) in B6D2F1 (BDF1) mice
Method in brief: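 Tumor-bearing mice were treated with test compound, and either survival or tumor size was recorded. Values are the treated-group measurement divided by that of the vehicle-treated control group.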

Compound: CCOC(=O)NC1=C(N2CC2)C(=O)C(NC(=O)OCC)=C(N2CC2)C1=O
- T/C (endpoint: median survival time, dose: 0.5 mg/kg/injection, schedule: Q01DX009 (ip), vehicle: saline with Tween-80, higher = longer survival): 110 % of control
- T/C (endpoint: median survival time, dose: 0.67 mg/kg/injection, schedule: Q01DX005 (ip), vehicle: saline with Tween-80, higher = longer survival): 92 % of control
- T/C (endpoint: median survival time, dose: 2.5 mg/kg/injection, schedule: Q01DX005 (ip), vehicle: saline with Tween-80, higher = longer survival): 91 % of control
- T/C (endpoint: median survival time, dose: 3.0 mg/kg/injection, schedule: Q01DX009 (ip), vehicle: saline with Tween-80, higher = longer survival): 100 % of control
- T/C (endpoint: median survival time, dose: 3.0 mg/kg/injection, schedule: Q04DX003 (ip), vehicle: saline with Tween-80, higher = longer survival): 86 % of control
- T/C (endpoint: median survival time, dose: 4.0 mg/kg/injection, schedule: Q04DX003 (ip), vehicle: saline with Tween-80, higher = longer survival): 93 % of control
- T/C (endpoint: median survival time, dose: 4.5 mg/kg/injection, schedule: Q01DX009 (ip), vehicle: saline with Tween-80, higher = longer survival): 96 % of control
- T/C (endpoint: median survival time, dose: 17.0 mg/kg/injection, schedule: Q01DX001 (ip), vehicle: saline with Tween-80, higher = longer survival): 100 % of control
- T/C (endpoint: median survival time, dose: 26.0 mg/kg/injection, schedule: Q01DX001 (ip), vehicle: saline with Tween-80, higher = longer survival): 86 % of control

Compound: Cn1cnc2c1c(=O)[nH]c(=O)n2C
- T/C (endpoint: mean tumor weight, dose: 50.0 mg/kg/injection, schedule: Q01DX011 (ip), vehicle: saline, higher = larger tumour): 74 % of control
- T/C (endpoint: mean tumor weight, dose: 100.0 mg/kg/injection, schedule: Q01DX011 (ip), vehicle: saline, higher = larger tumour): 72 % of control
- T/C (endpoint: mean tumor weight, dose: 200.0 mg/kg/injection, schedule: Q01DX011 (ip), vehicle: saline, higher = larger tumour): 85 % of control
- T/C (endpoint: mean tumor weight, dose: 400.0 mg/kg/injection, schedule: Q01DX011 (ip), vehicle: saline, higher = larger tumour): 84 % of control

Compound: C[C@]12C=CC(=O)C=C1CC[C@@H]1[C@@H]2CC[C@]2(C)OC(=O)CC[C@@H]12
- T/C (endpoint: mean tumor weight, dose: 12.5 mg/kg/injection, schedule: Q01DX011 (sc), vehicle: steriod suspending solution, higher = larger tumour): 75 % of control
- T/C (endpoint: mean tumor weight, dose: 25.0 mg/kg/injection, schedule: Q01DX011 (sc), vehicle: steriod suspending solution, higher = larger tumour): 102 % of control
- T/C (endpoint: mean tumor weight, dose: 50.0 mg/kg/injection, schedule: Q01DX011 (sc), vehicle: steriod suspending solution, higher = larger tumour): 53 % of control
- T/C (endpoint: mean tumor weight, dose: 100.0 mg/kg/injection, schedule: Q01DX011 (sc), vehicle: steriod suspending solution, higher = larger tumour): 97 % of control

Compound: CCC(C)C1NC(=O)C(NC(=O)c2c3nc4c(C(=O)NC5C(=O)NC(C(C)C)C(=O)N6CCCC6C(=O)N(C)CC(=O)N(C)C(C(C)C)C(=O)OC5C)ccc(C)c4oc-3c(C)c(=O)c2N)C(C)OC(=O)C(C(C)C)N(C)C(=O)CN(C)C(=O)C2CCCN2C1=O (stereo not given) (I: TIP[Sar][NMeV] / II: TVP[Sar][NMeV]; ester I:1-I:C, II:1-II:C; linker I:N-II:N via Actinocin(1to9); configuration not given here)
- T/C (endpoint: median survival time, dose: 12.5 micrograms/kg/injection, schedule: Q01DX009 (ip), vehicle: water, higher = longer survival): 111 % of control
- T/C (endpoint: median survival time, dose: 25.0 micrograms/kg/injection, schedule: Q01DX009 (ip), vehicle: water, higher = longer survival): 112 % of control
- T/C (endpoint: median survival time, dose: 50.0 micrograms/kg/injection, schedule: Q01DX009 (ip), vehicle: water, higher = longer survival): 112 % of control
- T/C (endpoint: median survival time, dose: 75.0 micrograms/kg/injection, schedule: Q04DX003 (ip), vehicle: water, higher = longer survival): 100 % of control
- T/C (endpoint: median survival time, dose: 150.0 micrograms/kg/injection, schedule: Q04DX003 (ip), vehicle: water, higher = longer survival): 108 % of control
- T/C (endpoint: median survival time, dose: 300.0 micrograms/kg/injection, schedule: Q04DX003 (ip), vehicle: water, higher = longer survival): 154 % of control

Compound: CCC(=O)O[C@H]1CC[C@H]2[C@@H]3CCC4=CC(=O)CC[C@]4(C)[C@H]3CC[C@]12C
- T/C (endpoint: mean tumor weight, dose: 125.0 mg/kg/injection, schedule: Q01DX011 (ip), vehicle: steriod suspending solution, higher = larger tumour): 86 % of control
- T/C (endpoint: mean tumor weight, dose: 250.0 mg/kg/injection, schedule: Q01DX011 (ip), vehicle: steriod suspending solution, higher = larger tumour): 70 % of control
- T/C (endpoint: mean tumor weight, dose: 500.0 mg/kg/injection, schedule: Q01DX011 (ip), vehicle: steriod suspending solution, higher = larger tumour): 84 % of control
- T/C (endpoint: median survival time, dose: 40.0 mg/kg/injection, schedule: Q02DX009 (ip), vehicle: Klucel (hydroxypropylcellulose) (HPC), higher = longer survival): 90 % of control
- T/C (endpoint: median survival time, dose: 80.0 mg/kg/injection, schedule: Q02DX009 (ip), vehicle: Klucel (hydroxypropylcellulose) (HPC), higher = longer survival): 97 % of control
- T/C (endpoint: median survival time, dose: 160.0 mg/kg/injection, schedule: Q02DX009 (ip), vehicle: Klucel (hydroxypropylcellulose) (HPC), higher = longer survival): 103 % of control
- T/C (endpoint: median survival time, dose: 320.0 mg/kg/injection, schedule: Q02DX009 (ip), vehicle: Klucel (hydroxypropylcellulose) (HPC), higher = longer survival): 90 % of control
